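Grown in 96-well plates, cells were treated for 48 hours with each compound at five concentrations. Insufficient inhibition: endpoint recorded as highest concentration tested. At the GI50, growth is halved. The concentration for full growth arrest is given as TGI.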

Among the test systems are SNB-19 CNS; OVCAR-3 ovarian; HCC-2998 colon; A498 renal; UACC-62 melanoma; OVCAR-4 ovarian; RPMI-8226 leukemia; SW-620 colon; NCI/ADR-RES ovarian; DU-145 prostate.
Assay in all cases: inhibition of tumour cell growth, NCI panel, 48 h

In the case of `C[C@]12CCC3[C@@H](CC[C@@H]4c5nonc5CC[C@]34C)C1CC[C@@H]2O` (stereo partly specified), the TGI in the test on SNB-19 CNS was more than 100 µM; in the test on OVCAR-3 ovarian it was 62.1 µM; in the test with HCC-2998 colon, more than 100 µM; in the test with A498 renal, 62.7 µM; in the test on UACC-62 melanoma, more than 100 µM; in the test with OVCAR-4 ovarian it was 82.4 µM. Also, the TGI was 38.9 µM with RPMI-8226 leukemia and more than 100 µM with SW-620 colon.
Consider `O=C(CC(Cl)=C(Cl)Cl)c1cccc(Cl)c1Cl`, for which the GI50 is more than 100 µM with SNB-19 CNS; more than 100 µM with A498 renal; 85.1 µM in the test with NCI/ADR-RES ovarian; 52.4 µM in the test on UACC-62 melanoma; more than 100 µM in the test on OVCAR-4 ovarian; 82.7 µM with RPMI-8226 leukemia. The GI50 in the test with SW-620 colon was 88.7 µM; in the test with DU-145 prostate, more than 100 µM. Besides, the TGI in the test with SNB-19 CNS, in the test with A498 renal, with NCI/ADR-RES ovarian, with UACC-62 melanoma, with OVCAR-4 ovarian and in the test with RPMI-8226 leukemia was more than 100 µM each time. Further, the TGI with SW-620 colon and in the test with DU-145 prostate was more than 100 µM throughout.
On to `CC(=O)NC(CC(C)C)C(=O)NC(Cc1ccccc1)C(=S)N1CCCC1` (stereo unspecified), for which the TGI in the test with SNB-19 CNS, in the test with OVCAR-3 ovarian, in the test on HCC-2998 colon, in the test on A498 renal, in the test on UACC-62 melanoma and in the test on OVCAR-4 ovarian was more than 100 µM in each case. The TGI in the test with RPMI-8226 leukemia and in the test with SW-620 colon was more than 100 µM in each case.
For `CC(=O)OC1COC(n2c(=S)n(-c3ccccc3)c(=O)c3ccccc32)C(OC(C)=O)C1OC(C)=O` (stereo unspecified), the TGI in the test on SNB-19 CNS, with OVCAR-3 ovarian, in the test on HCC-2998 colon, with A498 renal, with UACC-62 melanoma and in the test with OVCAR-4 ovarian was more than 100 µM throughout. The TGI in the test with RPMI-8226 leukemia and in the test with SW-620 colon was more than 100 µM in each case.
On to `COC(=O)C=Cc1ccc2nncnc2c1` (mixture of isomers), for which the TGI in the test on SNB-19 CNS is more than 100 µM; in the test on OVCAR-3 ovarian, more than 100 µM; in the test on A498 renal, more than 100 µM; in the test with NCI/ADR-RES ovarian, more than 100 µM; in the test with UACC-62 melanoma, 32.2 µM; in the test on OVCAR-4 ovarian, more than 100 µM. In addition, the TGI in the test with RPMI-8226 leukemia, in the test on SW-620 colon and in the test on DU-145 prostate was more than 100 µM throughout.
For `CN(CC(=O)N(Cc1ccc(C2CCCCC2)cc1)c1ccc(C(=O)O)cc1)S(=O)(=O)c1c(F)c(F)c(F)c(F)c1F`, the GI50 in the test on OVCAR-3 ovarian is 1.79 µM; with HCC-2998 colon, 1.76 µM; with A498 renal, 2.15 µM; in the test with NCI/ADR-RES ovarian, 2.14 µM; in the test with UACC-62 melanoma it was 1.92 µM; in the test on OVCAR-4 ovarian, 1.81 µM. Further, the GI50 in the test on RPMI-8226 leukemia was 2.85 µM; with SW-620 colon, 2.03 µM; in the test on DU-145 prostate, 1.74 µM. Besides, the TGI with OVCAR-3 ovarian worked out at 3.19 µM; with HCC-2998 colon, 3.22 µM; with A498 renal, 7.65 µM; with NCI/ADR-RES ovarian it was 5.26 µM; in the test on UACC-62 melanoma, 3.46 µM; in the test on OVCAR-4 ovarian, 3.48 µM. The figures for the TGI in the test on RPMI-8226 leukemia, in the test on SW-620 colon and with DU-145 prostate were 7.4 µM, 4.05 µM and 3.11 µM, respectively.
`Cc1cc(N2CCN(C)CC2)n2nc(-c3ccc(Cl)cc3)nc2n1`: the TGI in the test on SNB-19 CNS, in the test with OVCAR-3 ovarian, with A498 renal, in the test on NCI/ADR-RES ovarian, in the test on UACC-62 melanoma and with OVCAR-4 ovarian was more than 100 µM throughout. Besides, the TGI with RPMI-8226 leukemia, in the test with SW-620 colon and in the test with DU-145 prostate was more than 100 µM in each case.
On to `CC1(C)C(=O)C(C)(C)C1=S`, for which the TGI in the test on SNB-19 CNS, in the test with OVCAR-3 ovarian, with HCC-2998 colon, with A498 renal, in the test on UACC-62 melanoma and in the test with OVCAR-4 ovarian was more than 100 µM in each case. Further, the TGI in the test on RPMI-8226 leukemia and in the test with SW-620 colon was more than 100 µM throughout.
For `N#C/C(=C/NC(=S)c1ccncc1)C(N)=O`, the TGI in the test on SNB-19 CNS, in the test on OVCAR-3 ovarian, with HCC-2998 colon, in the test on A498 renal, in the test with NCI/ADR-RES ovarian and in the test on UACC-62 melanoma was more than 100 µM throughout. Besides, the TGI in the test with OVCAR-4 ovarian, in the test with SW-620 colon and in the test with DU-145 prostate was more than 100 µM each time.
As to `O=P(O)(O)C1(P(=O)(O)O)CC1`, the TGI in the test on SNB-19 CNS, in the test with OVCAR-3 ovarian, with HCC-2998 colon, in the test with A498 renal, in the test on UACC-62 melanoma and with OVCAR-4 ovarian was more than 100 µM throughout. Moreover, the TGI with RPMI-8226 leukemia and in the test with SW-620 colon was more than 100 µM in each case.
Turning to `CCCCCCC[CH2][Sn]1([CH2]CCCCCCC)[O]C(=O)c2cccnc2[O]1`, the GI50 with SNB-19 CNS, in the test on OVCAR-3 ovarian, with HCC-2998 colon, in the test with A498 renal, with UACC-62 melanoma and with OVCAR-4 ovarian was more than 100 µM each time. In addition, the GI50 with RPMI-8226 leukemia and in the test with SW-620 colon was more than 100 µM throughout. The TGI in the test with SNB-19 CNS, in the test on OVCAR-3 ovarian, with HCC-2998 colon, in the test with A498 renal, in the test with UACC-62 melanoma and in the test with OVCAR-4 ovarian was more than 100 µM in each case. The TGI in the test with RPMI-8226 leukemia and in the test with SW-620 colon was more than 100 µM in each case.
Regarding `Cc1ccc(NC(=O)C(=O)CC(=O)c2sc(Nc3c(C)cccc3C)nc2C)cc1C`, the TGI in the test on SNB-19 CNS, in the test with OVCAR-3 ovarian, in the test on HCC-2998 colon, in the test with NCI/ADR-RES ovarian, with UACC-62 melanoma and with OVCAR-4 ovarian was more than 100 µM each time. The TGI with RPMI-8226 leukemia, in the test on SW-620 colon and in the test with DU-145 prostate was more than 100 µM throughout.

The record behind these values is PubChem BioAssay (NCI).
